Results as given in patent publication EP4341264B1, “PYRROLOPIRIMIDINE DERIVATIVES AND THEIR USE IN THE TREATMENT OF LEISHMANIASIS” (Drugs for Neglected Diseases Initiative, priority 2021, dated 2022).
Where two headings read alike, the source gives them in different places.

Key:
[1] = test system: MRC-5SV2 cells; details: printed in SI column; data from IJP: Drugs and Drug Resistance, 2018, 8, 81-86; cited from earlier work
[2] = test system: L. infantum (MHOM/MA/67/ITMAP263); details: cited from earlier work
[3] = test system: L. donovani (MHOM/ET/67/L82); details: cited from earlier work
[4] = test system: L. major (MHOM/IL/81/Friedlin); assay: Leishmania clinical isolate panel screen (drug-susceptibility assay in infected macrophages); type: cell-based; details: Macrophage, Cutaneous leishmaniasis, L. major (MHOM/IL/81/Friedlin), Miltefosine: mean only, read-out: IC50 Mean ± SEM
Method: (§1) Female Swiss mice (BW ~20 g) were purchased from a commercial source (Janvier France) and kept in quarantine for 1 week. The animals were housed in group and drinking water was available ad libitum. To harvest peritoneal macrophages, the mice were first stimulated by intraperitoneal injection of 1 mL of starch solution (2% in PBS). After 24 h, macrophages were collected in RPMI-1640 supplemented with 5% iFCS, 2% penicillin-streptomycin and 1% L-glutamine by peritoneal lavage and immediately distributed in a 96-well plate at a concentration of 30,000 cells/well. The cells were incubated for 24 h at 37°C and 5 % CO2 to allow cell attachment.
(§2) Strains of L. donovani, L. infantum, L. major, L. tropica, L. guyanensis and L. panamensis were selected based on their intrinsic susceptibility to the commonly used reference drugs and their geographic distribution. All strains were cultivated in HOMEM promastigote medium and sub-cultured twice weekly. Passage numbers were kept as low as possible to avoid loss of virulence. For infection of the macrophages, metacyclic promastigote cultures were examined light microscopically for the abundant presence of metacyclic promastigotes. Upon counting, promastigotes were centrifuged and diluted in RPMI-1640 to the desired concentration. The infection ratio varied based on the ability of the strain to adequately infect the host cells and ranged from 5 to 20 promastigotes per macrophage. Macrophages were infected by adding 100 µL promastigote suspension per well onto the macrophages. When ex vivo amastigotes were available (only for two lab strains), macrophages were infected at a ratio of 10/1.
(§3) Stock solutions of the DNDi lead compounds were prepared in 100% DMSO at 20 mM and robotically further diluted in water. Miltefosine (MIL) was included as reference and formulated in water at a concentration of 20 mM. The medium was discarded from the plates to remove any residual non-internalized promastigotes and replaced by fresh RPMI-1640 medium supplemented with iFBS, P/S and L-glutamine (as described above). Next, a 2-fold dilution series of each lead compound was added to the plate with 64 µM as the highest in test-concentration for the DNDi leads and 40 µM for MIL. The 96-well plates were further incubated at 34-37°C and 5% CO2. For staining, the culture medium was discarded, and the plates were left to dry for 2-4 hours. The cells were then fixated with methanol for 10 minutes and stained with a 1/5 Giemsa dilution in water for 15 minutes. The percentage infection-inhibition compared to a positive control (untreated infected macrophages) was microscopically determined and used to calculate the IC50 and IC90 values.

[5] = test system: L. infantum (LEM3323-cl4 MIL); assay: as above; type: cell-based; details: Macrophage, read-out: IC50 Mean ± SEM
Method: as §1, §2, §3

[6] = test system: L. infantum (MHOM/ES/2016/LLM-2346); assay: as above; type: cell-based; details: Macrophage, Visceral leishmaniasis, L. infantum (MHOM/ES/2016/LLM-2346), Miltefosine: mean only, read-out: IC50 Mean ± SEM
Method: as §1, §2, §3

[7] = test system: L. infantum (MHOM/FR/96/LEM3323-cl4); assay: as above; type: cell-based; details: Macrophage, Visceral leishmaniasis, L. infantum (MHOM/FR/96/LEM3323-cl4), Miltefosine: mean only, read-out: IC50 Mean ± SEM
Method: as §1, §2, §3

[8] = test system: L. panamensis (MHOM/PA/71/LS94); assay: as above; type: cell-based; details: Macrophage, Cutaneous leishmaniasis, L. panamensis (MHOM/PA/71/LS94), Miltefosine: mean only, read-out: IC50 Mean ± SEM
Method: as §1, §2, §3

[9] = test system: L. tropica (MHOM/AF/2015/HTD7); assay: as above; type: cell-based; details: Macrophage, Cutaneous leishmaniasis, L. tropica (MHOM/AF/2015/HTD7), Miltefosine: mean only, read-out: IC50 Mean ± SEM
Method: as §1, §2, §3

[10] = test system: L. major (MHOM/SA/85/JISH118); assay: as above; type: cell-based; details: Macrophage, Cutaneous leishmaniasis, L. major (MHOM/SA/85/JISH118), Miltefosine: mean only, read-out: IC50 Mean ± SEM
Method: as §1, §2, §3

[11] = test system: L. infantum (MHOM/BR/2007/WC (L3015)); assay: as above; type: cell-based; details: Macrophage, Visceral leishmaniasis, L. infantum (MHOM/BR/2007/WC (L3015)), Miltefosine: mean only, read-out: IC50 Mean ± SEM
Method: as §1, §2, §3

[12] = test system: L. donovani (MHOM/ NP/2003/BPK282/0-cl4); assay: as above; type: cell-based; details: Macrophage, read-out: IC50 Mean ± SEM
Method: as §1, §2, §3

[13] = test system: L. donovani (MHOM/NP/03/BPK275/0-cl18); assay: as above; type: cell-based; details: Macrophage, Visceral leishmaniasis, L. donovani (MHOM/NP/03/BPK275/0-cl18), Miltefosine: mean only, read-out: IC50 Mean ± SEM
Method: as §1, §2, §3

[14] = test system: L. guyanensis (MHOM/PE/02/PER 054/0); assay: as above; type: cell-based; details: Macrophage, Cutaneous leishmaniasis, L. guyanensis (MHOM/PE/02/PER 054/0), Miltefosine: mean only, read-out: IC50 Mean ± SEM
Method: as §1, §2, §3

[15] = test system: L. infantum (LEM3323-cl4 PMM); assay: as above; type: cell-based; details: Macrophage, read-out: IC50 Mean ± SEM
Method: as §1, §2, §3

[16] = test system: L. infantum; assay: VL hamster model in vivo efficacy (reduction of parasite load vs. control); details: 40 mg/kg qd, 5 days
Method: The in vivo efficacy of the compounds C1, C3, C4, and miltefosine was evaluated in a VL hamster model infected with L. infantum. The in vivo studies were performed in accordance with the methods described by Van den Kerkhof et al. [IJP: Drugs and Drug Resistance, 2018, 8, Issue 1, 81-86]. Following treatment, the reduction of parasite load vs. control was determined in different body compartments (liver, spleen, and bone marrow) with results presented in Table 4. Table 4. Hamster in vivo efficacy

Question: For `CCCCCCCCCCCCCCCCOP(=O)([O-])OCC[N+](C)(C)C` [Miltefosine, reference compound], which CC50 [1] is on record?
Answer: 38.5 µM

Question: And the IC50 ([2]; L. infantum infected macrophages, IJP: Drugs and Drug Resistance, 2018, 8, Issue 1, 81-86)?
Answer: 3.5 ± 0.4 µM

Question: And the IC50 ([2]; L. infantum, data from IJP: Drugs and Drug Resistance, 2018, 8, 81-86)?
Answer: 3.5 ± 0.4 µM

Question: And the IC50 ([3]; L. donovani infected macrophages, IJP: Drugs and Drug Resistance, 2018, 8, Issue 1, 81-86)?
Answer: 1800 ± 400 nM

Question: What about the IC50 ([3]; L. donovani, data from IJP: Drugs and Drug Resistance, 2018, 8, 81-86) of the same compound?
Answer: 1800 ± 400 nM

Question: What about the IC50 [4] of the same compound?
Answer: 11.3 µM

Question: And the IC50 [5]?
Answer: 2010 nM

Question: And the IC50 [6]?
Answer: 2160 nM

Question: What about the IC50 [7] of the same compound?
Answer: 1810 nM

Question: What about the IC50 [8] of the same compound?
Answer: 1810 nM

Question: What about the IC50 [9] of the same compound?
Answer: 2160 nM

Question: And the IC50 [10]?
Answer: 24.1 µM

Question: What about the IC50 [11] of the same compound?
Answer: 2690 nM

Question: And the IC50 [12]?
Answer: 2010 nM

Question: What about the IC50 [13] of the same compound?
Answer: 2070 nM

Question: And the IC50 [14]?
Answer: 8.06 µM

Question: What about the IC50 [15] of the same compound?
Answer: 20.3 µM

Question: What about the “% Parasite reduction Bone marrow” value ([16]; bone marrow) of the same compound?
Answer: 92.1-99.0%

Question: What about the “% Parasite reduction Liver” value ([16]; liver) of the same compound?
Answer: 97.0-98.2%

Question: What about the “% Parasite reduction Spleen” value ([16]; spleen) of the same compound?
Answer: 95.7-99.5%
